# Reference: patent publication US20110256557A1, “IDENTIFYING PARATHYROID HORMONE AGONISTS AND ANTAGONISTS” (DISCOVERYBIOMED, INC., priority 2008, published 2011)
# Tests used:
# Xenopus = test: LRP6-mediated secondary axis induction in Xenopus embryos; format: in vivo; details: ventral injection of PTH and PTH1R RNA with LRP6 RNA
# Excerpt: RNAs for microinjection were synthesized using SP6 mMessage mMachine in vitro transcription kit (Ambion; Austin, Tex.). […] The doses of RNAs used were: 200 pg LRP6, 2 pg PTH and 50 pg PTH1R.
# [1] = system: luciferase reporter bearing TCF/LEF binding elements; test: TCF/LEF luciferase reporter assay in UMR-106 cells; format: cell-based, rat; details: UMR-106 cells, agent alone
# Excerpt: HEK293, UMR-106 and mouse embryonic fibroblast (MEF) cells were maintained in Dulbecco's Modified Eagle Medium (DMEM) with 10% Fetal Calf Serum (FCS). Mouse Wnt3a conditioned medium (Wnt3a CM) was produced from mouse L cells stably transfected with mouse Wnt3a (American Type Culture Collection; Manassas, Va.) and control conditioned medium (Control CM) was from non-transfected L cells. IgG, LRP6N-IgG, DKK1, Sclerostin, VSVG-LRP6N and Myc-Fz8CRD conditioned media were produced from HEK 293 cells transfected with the individual plasmids. Transfections were carried out using lipofectamine reagent (Invitrogen; Carlsbad, Calif.). Luciferase assays were carried out in either UMR-106 or HEK 293 cells as described previously (Wan et al., Am. J. Pathol. 166:1379-92 (2005)), with 0.3 μg of TCF-Luc reporter plasmid plus 50 ng of Renilla luciferase plasmid (internal control) per well in the 12-well plate. Experiments were repeated at least three times with triplicate for each experiment.
# [2] = system: phosphorylated LRP6 in osteoblasts; test: Immunohistochemistry of phosphorylated LRP6 in femur sections, rats; format: in vivo, rat
# Protocol: For the experiments in which rats or mice were administered PTH as single-dose injection, five-month-old male Sprague Dawley rats (Charles River Laboratories; Wilmington, Mass.) or two-month-old male C57BL/J6 mice (Jackson Laboratory; Bar Harbor, Me.) (6 per group) were administered a single dose of either vehicle (1 mM acetic acid in sterile PBS) or PTH (1-34) (Bachem Inc.; Torrance, Calif.) at 40 μg/kg in a volume of 100 μl. In the mouse model, mouse recombinant Wnt3a (R&D Systems; Minneapolis, Minn.) was injected at 25 μg/kg in a volume of 100 μl. All treatments were through bolus intravenous injection via the tail vein. Rats/mice were sacrificed at 0.5, 2, 8 and 24 hours after injection.
# Formalin-fixed femur or tibia tissue sections of 5 μm thickness from rats or mice were processed with antigen retrieval and hydrogen peroxide treatment prior to incubation with primary monoclonal antibody specific for β-catenin (BD Biosciences; San Jose, Calif.), goat polyclonal antibody sclerostin (R&D Systems; Minneapolis, Minn.) or rabbit polyclonal phosphorylated LRP6 (Ab1490) for 1 hour at room temperature or overnight at 4° C. […] In the mouse model, numbers of total osteoblasts and numbers of β-catenin-positive osteoblasts were counted in three random high power fields in a 2-mm square, 1 mm distal to the lowest point of the growth plate in the secondary spongiosa. […]
# LRP6-PTH1R complex = biological target: T1, LRP6-PTH1R complex (Rattus norvegicus, UniProt P25961); test: Co-immunoprecipitation of endogenous LRP6 and PTH1R in UMR-106 cells; format: cell-based; details: IP with antibodies to LRP6, time-dependent
# T1 construct: endogenous LRP6 and endogenous PTH1R in UMR-106 cells; endogenous in cells; host or cells: UMR-106
# T1 sequence (P25961 27-591): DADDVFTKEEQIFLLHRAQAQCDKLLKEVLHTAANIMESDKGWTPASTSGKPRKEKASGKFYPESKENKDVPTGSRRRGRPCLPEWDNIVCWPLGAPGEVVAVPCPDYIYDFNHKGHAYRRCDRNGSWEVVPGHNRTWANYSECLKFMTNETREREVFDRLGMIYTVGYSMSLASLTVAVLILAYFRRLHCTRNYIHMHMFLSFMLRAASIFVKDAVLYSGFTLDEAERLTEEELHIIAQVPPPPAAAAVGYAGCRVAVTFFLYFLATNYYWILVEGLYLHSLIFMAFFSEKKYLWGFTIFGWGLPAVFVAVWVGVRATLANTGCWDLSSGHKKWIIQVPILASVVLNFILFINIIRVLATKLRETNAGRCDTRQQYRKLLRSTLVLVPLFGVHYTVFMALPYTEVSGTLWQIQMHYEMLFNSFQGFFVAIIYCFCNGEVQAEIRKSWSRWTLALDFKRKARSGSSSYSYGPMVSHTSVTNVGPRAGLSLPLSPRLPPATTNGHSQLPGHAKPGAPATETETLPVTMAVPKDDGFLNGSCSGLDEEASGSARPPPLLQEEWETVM
# Protocol: (§1) Cells were harvested in cavitation buffer (5 mM HEPES, pH 7.4, 3 mM MgCl2, 1 mM EGTA, 250 mM sucrose) containing protease and phosphatase inhibitors and homogenized by nitrogen cavitation (200 p.s.i., for 5 minutes) in a cell disruption bomb (Parr Instrument Co.; Moline, Ill.). The cell homogenate was centrifuged twice at 700 g for 10 minutes to pellet the nuclei. The supernatant was further centrifuged at 100,000 g (Beckman SW50.1 rotor) for 1 hour to separate the membrane and cytosol fractions, and the resulting membrane pellet was washed three times with cavitation buffer before use in the assays (Zhang et al., Biochem. J. 343:541-9 (1999)). Immunoprecipitation and Western blot analysis of cell lysates were performed as described previously (Wan et al., Am. J. Pathol. 166:1379-92 (2005)).
# axin-LRP6 binding = test: Co-IP of axin binding to LRP6 in HEK293 cells; format: cell-based; details: co-IP, HEK293 cells
# Protocol: as §1
substance,measurement,setting,value
Parathyroid hormone [PTH],LRP6-induced secondary axis induction,Xenopus,enhanced
same,transcription of a luciferase reporter bearing TCF/LEF binding elements,[1],stimulated
same,phosphorylation of LRP6 in preosteoblasts or osteoblasts at the surface of trabecular bone,"[2]; single dose of PTH (1-34) 40 μg/kg, antibody specific for phosphorylated PPPSP",stimulated
same,amount of total LRP6 protein,"[2]; single dose, same tissue",remained unchanged
same,complex formation of PTH1R with endogenous LRP6,LRP6-PTH1R complex,formed a complex with endogenous LRP6 in response to PTH in a time-dependent manner
same,binding of axin to LRP6,axin-LRP6 binding,rapidly increased
